Experiments:
Smn protein = Smn protein assay in cultured cells (SMN HTRF); format: cell-based, human; details: SMA patient fibroblast cells (GM03813), 48 hours; for maximum fold (Fold) increase of Smn protein: 7-point concentration data, relative to vehicle control; for EC1.5x for Smn protein expression: 7-point concentration curve, concentration producing 1.5 times Smn protein vs DMSO vehicle
Protocol: The SMN HTRF (homogeneous time resolved fluorescence) assay is used to quantify the level of Smn protein in SMA patient fibroblast cells treated with test compounds.
Cells are thawed and cultured in DMEM-10% FBS for 72 hours. Cells are trypsinized, counted and re-suspended to a concentration of 25,000 cells/mL in DMEM-10% FBS. The cell suspensions are plated at 5,000 cells per well in a 96 well microtiter plate and incubated for 3 to 5 hours. […] Test compounds are serially diluted 3.16-fold in 100% DMSO to generate a 7-point concentration curve. 1 μL of test compound solution is transferred to cell-containing wells and cells are incubated for 48 hours in a cell culture incubator (37° C., 5% CO2, 100% relative humidity). Triplicate samples are set up for each test compound concentration. After 48 hours, the supernatant is removed from the wells and 25 μL of the RIPA lysis buffer, containing protease inhibitors, is added to the wells and incubated with shaking at room temperature for 1 hour. 25 μL of the diluent is added and then 35 μL of the resulting lysate is transferred to a 384-well plate, where each well contains 5 μL of the antibody solution (1:100 dilution of anti-SMN d2 and anti-SMN kryptate in SMN reconstitution buffer). The plate is centrifuged for 1 minute to bring the solution to the bottom of the wells, then incubated overnight at room temperature. Fluorescence for each well of the plate at 665 nm and 620 nm is measured on an EnVision multilabel plate reader (Perkin-Elmer).
The normalized fluorescence signal is calculated for each sample, Blank and vehicle control well by dividing the signal at 665 nm by the signal at 620 nm. Normalizing the signal accounts for possible fluorescence quenching due to the matrix effect of the lysate. The ΔF value (a measurement of Smn protein abundance as a percent value) for each sample well is calculated by subtracting the normalized average fluorescence for the Blank control wells from the normalized fluorescence for each sample well, then dividing this difference by the normalized average fluorescence for the Blank control wells and multiplying the resulting value by 100. The ΔF value for each sample well represents the Smn protein abundance from test compound-treated samples. The ΔF value for each sample well is divided by the ΔF value for the vehicle control wells to calculate the fold increase in Smn protein abundance relative to the vehicle control.

[1] = system: full length SMN2 minigene mRNA containing SMN2 exon 7; test: SMN2 minigene mRNA splicing RT-qPCR assay in cultured cells; format: cell-based, human; details: Homo sapiens, HEK293-H; HEK293H cells stably transfected with SMN2-A minigene, 24 hours, 7-point concentration curve; concentration giving 1.5-fold full length SMN2 mRNA vs vehicle; read-out: EC1.5x for production of full length SMN2 mRNA
Protocol: The reverse transcription-quantitative PCR-based (RT-qPCR) assay is used to quantify the level of the full length SMN2 minigene mRNA containing SMN2 exon 7 in a HEK293H cell line stably transfected with said minigene and treated with a test compound.
HEK293H cells stably transfected with the SMN2-A minigene construct described above (10,000 cells/well) are seeded in 200 ut, of cell culture medium (DMEM plus 10% FBS, with 200 μg/mL hygromycin) in 96-well flat-bottom plates and the plate is immediately swirled to ensure proper dispersal of cells, forming an even monolayer of cells. Cells are allowed to attach for at least 4-6 hours. Test compounds are serially diluted 3.16-fold in 100% DMSO to generate a 7-point concentration curve. A solution of test compound (1 μL, 200× in DMSO) is added to each cell-containing well and the plate is incubated for 24 hours in a cell culture incubator (37° C., 5% CO2, 100% relative humidity). 2 replicates are prepared for each test compound concentration. The cells are then lysed in Cells-To-Ct lysis buffer and the lysate is stored at −80° C.
Primer SMN Forward A (SEQ ID NO. 1) hybridizes to a nucleotide sequence in exon 7 (nucleotide 22 to nucleotide 40), primer SMN Reverse A (SEQ ID NO. 2) hybridizes to a nucleotide sequence in the coding sequence of Firefly luciferase, SMN Probe A (SEQ ID NO. 3) hybridizes to a nucleotide sequence in exon 7 (nucleotide 50 to nucleotide 54) and exon 8 (nucleotide 1 to nucleotide 21). The combination of these three oligonucleotides detects only SMN1 or SMN2 minigenes (RT-qPCR) and will not detect endogenous SMN1 or SMN2 genes.
The SMN forward and reverse primers are used at final concentrations of 0.4 μM. The SMN probe is used at a final concentration of 0.15 μM. The GAPDH primers are used at final concentrations of 0.2 μM and the probe at 0.15 μM.
The SMN2-minigene GAPDH mix (15 μL total volume) is prepared by combining 7.5 μL of 2×RT-PCR buffer, 0.4 μL of 25×RT-PCR enzyme mix, 0.75 μL of 20×GAPDH primer-probe mix, 4.0075 μL of water, 2 μL of 10-fold diluted cell lysate, 0.06 μL of 100 μM SMN forward primer, 0.06 μL of 100 μM SMN reverse primer, and 0.225 μL of 100 μM SMN probe.
PCR is carried out at the following temperatures for the indicated time: Step 1: 48° C. (15 min); Step 2: 95° C. (10 min); Step 3: 95° C. (15 sec); Step 4: 60° C. (1 min); then repeat Steps 3 and 4 for a total of 40 cycles.
Each reaction mixture contains both SMN2-A minigene and GAPDH primersprobe sets (multiplex design), allowing simultaneous measurement of the levels of two transcripts.
Two SMN spliced products are generated from the SMN2 minigene. The first spliced product containing exon 7, corresponding to full length SMN2 mRNA, is referred to herein using the term “SMN2 minigene FL.” The second spliced product lacking exon 7 is referred to herein using the term “SMN2 minigene Δ7.”
The increase of SMN2 minigene FL mRNA relative to that in cells treated with vehicle control is determined from real-time PCR data using a modified ΔΔCt method (as described in Livak and Schmittgen, Methods, 2001, 25:402-8). The amplification efficiency (E) is calculated from the slope of the amplification curve for SMN2 minigene FL and GAPDH individually. The abundances of SMN2 minigene FL and GAPDH are then calculated as (1+E)^−Ct, where Ct is the threshold value for each amplicon. The abundance of SMN2 minigene FL is normalized to GAPDH abundance. The normalized SMN2 minigene FL abundance from test compound-treated samples is then divided by normalized SMN2 minigene FL abundance from vehicle-treated cells to determine the level of SMN2 FL mRNA relative to vehicle control.

Row | Compound | melting point | maximum fold (Fold) increase of Smn protein (Smn protein) | EC (1.5-fold) [1] | EC1.5x for Smn protein expression (Smn protein)
1 | COc1ccc(-c2cc3ccc(N4CCN(C)CC4)cc3c(=O)o2)cc1 [Cpd 25, 3-(4-methoxyphenyl)-7-(4-methylpiperazin-1-yl)-1H-isochromen-1-one] | 166 to 168 °C | * (A maximum fold increase of ≦1.2 is indicated by one star (*)) | 1 to 3 µM | –
2 | O=c1oc(-c2cn3ccccc3n2)cc2ccc(N3CCNCC3)cc12 [Cpd 26, 3-(imidazo[1,2-a]pyridin-2-yl)-7-(piperazin-1-yl)-1H-isochromen-1-one] | 248 °C (dec.) | * (A maximum fold increase of ≦1.2 is indicated by one star (*)) | 1 to 3 µM | –
3 | CN1CCN(c2ccc3cc(-c4cn5ccccc5n4)oc(=O)c3c2)CC1 [Cpd 27, 3-(imidazo[1,2-a]pyridin-2-yl)-7-(4-methylpiperazin-1-yl)-1H-isochromen-1-one] | 252 to 254 °C | * (A maximum fold increase of ≦1.2 is indicated by one star (*)) | 3 to 30 µM | –
4 | O=c1oc(-c2cn3ccsc3n2)cc2ccc(N3CCNCC3)cc12 [Cpd 28, 3-(imidazo[2,1-b][1,3]thiazol-6-yl)-7-(piperazin-1-yl)-1H-isochromen-1-one] | 224 to 226 °C | *** (a fold increase between >1.35 and ≦1.5 is indicated by three stars (***)) | 0.3 to 1 µM | –

More lines, main results first:

Row | melting point | Compound | maximum fold (Fold) increase of Smn protein (Smn protein) | EC (1.5-fold) [1] | EC1.5x for Smn protein expression (Smn protein)
5 | 154 to 157 °C | COc1ccccc1-c1cc2ccc(N3C[C@@H](C)N[C@@H](C)C3)cc2c(=O)o1 [Cpd 23, 7-[(3R,5S)-3,5-dimethylpiperazin-1-yl]-3-(2-methoxyphenyl)-1H-isochromen-1-one] | * (A maximum fold increase of ≦1.2 is indicated by one star (*)) | 1 to 3 µM | –
6 | 235 to 238 °C | COc1ccc(-c2cc3ccc(N4CCNCC4)cc3c(=O)o2)cc1 [Cpd 24, 3-(4-methoxyphenyl)-7-(piperazin-1-yl)-1H-isochromen-1-one] | *** (a fold increase between >1.35 and ≦1.5 is indicated by three stars (***)) | 0.1 to 0.3 µM | *** (an EC1.5× between >0.3 nM and ≦1 nM is indicated by three stars (***))
7 | 109 to 110 °C | COc1ccc(-c2cc3ccc(N4C[C@@H](C)N[C@@H](C)C4)cc3c(=O)o2)cc1 [Cpd 29, 7-[(3R,5S)-3,5-dimethylpiperazin-1-yl]-3-(4-methoxyphenyl)-1H-isochromen-1-one] | * (A maximum fold increase of ≦1.2 is indicated by one star (*)) | 0.3 to 1 µM | –
8 | 155 to 157 °C | COc1ccc(-c2cc3ccc(N4CCN[C@@H](C)C4)cc3c(=O)o2)cc1OC [Cpd 30, 3-(3,4-dimethoxyphenyl)-7-[(3S)-3-methylpiperazin-1-yl]-1H-isochromen-1-one] | **** (a fold increase between >1.5 and ≦1.65 is indicated by four stars (****)) | ≤ 0.1 µM | **** (an EC1.5×≦0.3 nM is indicated by four stars (****))
9 | 129 to 131 °C | COc1ccc(-c2cc3ccc(N4CCN[C@@H](C)C4)cc3c(=O)o2)cc1 [Cpd 31, 3-(4-methoxyphenyl)-7-[(3S)-3-methylpiperazin-1-yl]-1H-isochromen-1-one] | **** (a fold increase between >1.5 and ≦1.65 is indicated by four stars (****)) | ≤ 0.1 µM | ** (an EC1.5× between >1 μM, and ≦3 nM is indicated by two stars (**))
10 | 143 to 146 °C | COc1ccccc1-c1cc2ccc(N3CCN[C@@H](C)C3)cc2c(=O)o1 [Cpd 32, 3-(2-methoxyphenyl)-7-[(3S)-3-methylpiperazin-1-yl]-1H-isochromen-1-one] | ** (a fold increase between >1.2 and ≦1.35 is indicated by two stars (**)) | 0.3 to 1 µM | –

From patent publication US9399649B2, “Compounds for treating spinal muscular atrophy” (PTC Therapeutics Inc., priority 2012, dated 2016)
